The structures appear in SMILES notation. Counter-ions that a name gives are not always drawn.

The target of data set [1] is T1, PI 3-kinase beta (Homo sapiens, UniProt P42338). Description: Kinase Glo Luminescent Kinase Assay (Kglo), assay B. Type of data set: biochemical. Particulars: read-out: Assay B PI3Kβ IC50.
Data set [2] relates to IL-8-induced neutrophil shape change in human whole blood. The experiment in a line: Whole blood neutrophil shape change assay (L). Type of data set: cell-based. The settings on record: Homo sapiens, Neutrophil, IL-8, human whole blood, read-out: Assay L WBSC IC50.
Another data set addresses Vps34 (Homo sapiens, UniProt Q8NEB9). The experiment in a line: Kinase Glo Luminescent Kinase Assay (Kglo), assay C. Type of data set: biochemical. Particulars: read-out: Assay C VPS34 IC50.
For the next data set, the target named is PI 4-kinase beta (Homo sapiens, UniProt Q9UBF8). The experiment in a line: Kinase Glo Luminescent Kinase Assay (Kglo), assay D. The format is biochemical. Particulars: read-out: Assay D PI4Kβ IC50.
PI 4-kinase beta, sequence (Q9UBF8 whole entry): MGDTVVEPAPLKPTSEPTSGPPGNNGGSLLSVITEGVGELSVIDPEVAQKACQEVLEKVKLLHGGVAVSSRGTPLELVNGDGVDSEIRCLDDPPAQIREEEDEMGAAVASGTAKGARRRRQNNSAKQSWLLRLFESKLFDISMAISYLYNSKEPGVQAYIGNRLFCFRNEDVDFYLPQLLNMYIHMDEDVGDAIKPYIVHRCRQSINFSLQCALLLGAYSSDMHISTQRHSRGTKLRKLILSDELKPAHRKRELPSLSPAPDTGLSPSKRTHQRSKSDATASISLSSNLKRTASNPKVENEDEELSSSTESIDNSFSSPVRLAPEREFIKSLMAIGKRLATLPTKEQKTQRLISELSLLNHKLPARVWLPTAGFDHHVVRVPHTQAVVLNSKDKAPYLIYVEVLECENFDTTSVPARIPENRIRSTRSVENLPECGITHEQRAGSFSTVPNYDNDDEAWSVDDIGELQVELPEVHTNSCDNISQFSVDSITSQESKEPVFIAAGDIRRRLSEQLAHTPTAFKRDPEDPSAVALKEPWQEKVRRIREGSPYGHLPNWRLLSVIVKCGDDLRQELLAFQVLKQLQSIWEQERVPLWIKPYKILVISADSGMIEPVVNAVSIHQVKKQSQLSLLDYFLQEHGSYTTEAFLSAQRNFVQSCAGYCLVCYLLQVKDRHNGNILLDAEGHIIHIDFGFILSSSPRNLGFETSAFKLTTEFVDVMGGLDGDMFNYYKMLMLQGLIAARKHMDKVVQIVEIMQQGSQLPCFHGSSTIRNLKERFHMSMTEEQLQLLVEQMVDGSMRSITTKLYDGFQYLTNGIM
For the next data set, the target named is mTOR (Homo sapiens, UniProt P42345). The experiment in a line: Lanthascreen kinase binding assay, assay G. The settings on record: read-out: Assay G mTOR IC50.
Data set [3] concerns the target T2, PI 3-kinase delta (Homo sapiens, UniProt O00329). Description: TR-FRET Adapta assay, assay F. Particulars: read-out: Assay F PI3Kδ IC50.
Target sequence in this assay (O00329 whole entry): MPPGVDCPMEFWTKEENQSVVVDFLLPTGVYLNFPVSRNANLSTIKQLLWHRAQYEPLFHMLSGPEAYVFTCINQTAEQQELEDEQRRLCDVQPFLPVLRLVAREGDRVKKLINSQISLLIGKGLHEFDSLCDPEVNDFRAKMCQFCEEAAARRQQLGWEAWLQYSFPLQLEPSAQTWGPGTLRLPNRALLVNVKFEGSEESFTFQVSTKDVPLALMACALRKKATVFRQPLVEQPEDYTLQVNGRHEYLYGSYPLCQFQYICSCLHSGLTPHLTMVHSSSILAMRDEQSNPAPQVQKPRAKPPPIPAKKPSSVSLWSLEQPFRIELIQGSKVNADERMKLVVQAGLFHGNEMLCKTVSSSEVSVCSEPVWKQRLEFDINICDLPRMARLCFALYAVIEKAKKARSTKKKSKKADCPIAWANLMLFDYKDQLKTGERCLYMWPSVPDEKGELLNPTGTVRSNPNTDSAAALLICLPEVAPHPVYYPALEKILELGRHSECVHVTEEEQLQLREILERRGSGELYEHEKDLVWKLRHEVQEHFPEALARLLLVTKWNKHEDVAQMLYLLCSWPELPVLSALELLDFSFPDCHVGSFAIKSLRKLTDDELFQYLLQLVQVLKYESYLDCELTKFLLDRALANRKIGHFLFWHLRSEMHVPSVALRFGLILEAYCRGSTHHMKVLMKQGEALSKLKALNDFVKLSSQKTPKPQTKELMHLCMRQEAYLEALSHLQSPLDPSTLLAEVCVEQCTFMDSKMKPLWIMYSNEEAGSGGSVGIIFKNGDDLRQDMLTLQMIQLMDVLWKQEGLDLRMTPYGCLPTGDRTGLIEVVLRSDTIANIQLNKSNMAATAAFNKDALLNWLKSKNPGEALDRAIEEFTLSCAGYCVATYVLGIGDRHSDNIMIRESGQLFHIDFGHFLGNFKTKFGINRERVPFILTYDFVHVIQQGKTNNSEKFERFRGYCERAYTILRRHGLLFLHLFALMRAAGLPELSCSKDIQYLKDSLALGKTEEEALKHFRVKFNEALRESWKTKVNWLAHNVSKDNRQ
Target sequence in this assay (P27986 461-568 partner): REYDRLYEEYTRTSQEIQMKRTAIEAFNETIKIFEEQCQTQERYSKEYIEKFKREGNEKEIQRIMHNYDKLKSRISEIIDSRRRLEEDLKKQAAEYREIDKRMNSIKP
The target in data set [4] is T3, PI 3-kinase gamma (Homo sapiens, UniProt P48736). The experiment in a line: TR-FRET Adapta assay, assay E. Type of data set: biochemical. The settings on record: read-out: Assay E PI3Kγ IC50.
T3 sequence (P48736 whole entry): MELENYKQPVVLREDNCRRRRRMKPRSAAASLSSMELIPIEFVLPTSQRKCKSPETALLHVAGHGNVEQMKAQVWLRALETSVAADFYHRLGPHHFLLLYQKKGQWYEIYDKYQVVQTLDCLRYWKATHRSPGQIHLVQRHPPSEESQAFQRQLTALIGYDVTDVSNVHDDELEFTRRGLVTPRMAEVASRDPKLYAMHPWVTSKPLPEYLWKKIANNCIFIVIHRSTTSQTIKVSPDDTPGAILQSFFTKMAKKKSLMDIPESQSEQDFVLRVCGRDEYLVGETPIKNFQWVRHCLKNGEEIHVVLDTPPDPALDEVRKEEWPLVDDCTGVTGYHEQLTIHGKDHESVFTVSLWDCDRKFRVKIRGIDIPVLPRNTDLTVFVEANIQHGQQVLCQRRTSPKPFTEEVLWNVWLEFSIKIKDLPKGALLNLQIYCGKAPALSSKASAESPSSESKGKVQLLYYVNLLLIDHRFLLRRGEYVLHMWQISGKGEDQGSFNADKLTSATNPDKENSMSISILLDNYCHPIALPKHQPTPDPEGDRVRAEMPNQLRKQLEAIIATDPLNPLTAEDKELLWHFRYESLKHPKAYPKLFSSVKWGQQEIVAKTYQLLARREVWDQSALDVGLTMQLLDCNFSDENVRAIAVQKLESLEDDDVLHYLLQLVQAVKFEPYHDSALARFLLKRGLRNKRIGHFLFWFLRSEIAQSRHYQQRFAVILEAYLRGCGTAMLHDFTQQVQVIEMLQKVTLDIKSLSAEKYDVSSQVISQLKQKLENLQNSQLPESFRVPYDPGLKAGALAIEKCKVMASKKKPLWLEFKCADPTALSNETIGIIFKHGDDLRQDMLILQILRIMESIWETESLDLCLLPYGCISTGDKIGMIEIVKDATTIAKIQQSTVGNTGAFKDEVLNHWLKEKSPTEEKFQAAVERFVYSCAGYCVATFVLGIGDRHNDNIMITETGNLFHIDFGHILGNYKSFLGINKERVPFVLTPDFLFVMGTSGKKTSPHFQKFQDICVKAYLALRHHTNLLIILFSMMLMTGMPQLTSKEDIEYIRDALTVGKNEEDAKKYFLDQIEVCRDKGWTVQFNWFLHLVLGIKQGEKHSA
The target of data set [5] is T4, PI 3-kinase alpha (Homo sapiens, UniProt P42336). The experiment in a line: Kinase Glo Luminescent Kinase Assay (Kglo), assay A. Type of data set: biochemical. The settings on record: read-out: Assay A PI3Kα IC50.
Target sequence in this assay (P42336 whole entry): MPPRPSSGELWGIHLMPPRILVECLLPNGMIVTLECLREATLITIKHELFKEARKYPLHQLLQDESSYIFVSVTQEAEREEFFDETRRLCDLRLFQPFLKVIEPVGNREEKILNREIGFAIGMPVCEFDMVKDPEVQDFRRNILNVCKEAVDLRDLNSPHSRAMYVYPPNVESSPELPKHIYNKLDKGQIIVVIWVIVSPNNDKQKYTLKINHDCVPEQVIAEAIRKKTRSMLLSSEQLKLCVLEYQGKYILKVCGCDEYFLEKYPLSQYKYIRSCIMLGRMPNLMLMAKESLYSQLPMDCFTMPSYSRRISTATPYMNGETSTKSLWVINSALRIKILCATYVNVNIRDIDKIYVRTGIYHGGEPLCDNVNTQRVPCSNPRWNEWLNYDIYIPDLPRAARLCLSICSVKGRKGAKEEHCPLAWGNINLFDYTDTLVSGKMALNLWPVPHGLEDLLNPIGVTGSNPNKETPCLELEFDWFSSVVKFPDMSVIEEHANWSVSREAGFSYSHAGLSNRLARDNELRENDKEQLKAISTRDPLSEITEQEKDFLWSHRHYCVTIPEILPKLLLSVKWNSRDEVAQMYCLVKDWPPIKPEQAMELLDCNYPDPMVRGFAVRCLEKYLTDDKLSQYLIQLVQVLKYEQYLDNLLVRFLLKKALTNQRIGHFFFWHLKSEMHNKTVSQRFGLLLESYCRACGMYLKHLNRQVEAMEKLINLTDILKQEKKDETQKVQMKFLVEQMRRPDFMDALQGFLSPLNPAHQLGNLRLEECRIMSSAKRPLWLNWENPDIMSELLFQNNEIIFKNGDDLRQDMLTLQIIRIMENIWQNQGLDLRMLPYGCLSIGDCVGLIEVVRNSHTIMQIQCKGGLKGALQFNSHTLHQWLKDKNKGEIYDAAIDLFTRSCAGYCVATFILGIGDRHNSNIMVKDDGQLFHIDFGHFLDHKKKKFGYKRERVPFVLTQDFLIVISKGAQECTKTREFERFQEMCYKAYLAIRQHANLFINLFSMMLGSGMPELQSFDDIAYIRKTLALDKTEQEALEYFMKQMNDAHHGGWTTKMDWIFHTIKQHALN
The target in data set [6] is T3, PI 3-kinase gamma. Description: Cellular U937 AKT assay K1 (MSD). Type of data set: cell-based. The settings on record: U937 cells, K1 format; read-out: Assay K1 PI3Kγ IC50.
Data set [7] in a line: Microsomal clearance assay (M). The settings on record: intrinsic clearance in rat liver microsomes.
Procedure: The experiments were performed in 96-well glass plates at 37° C. on an automated Tecan EVO platform. Test compounds at a concentration of 10 mM in pure DMSO were diluted 1:1000 in water to 10 μM. […] Reactions were initiated by the addition of 150 μL of a cofactor solution containing 2 mM NADPH.
For data set [8], the target named is T3, PI 3-kinase gamma. Description: Cellular U937 AKT assay K2 (HTRF). The settings on record: U937 cells, K2 format; read-out: Assay K2 PI3Kγ IC50. The format is cell-based.
The target of data set [9] is T1, PI 3-kinase beta. The experiment in a line: Cellular assay I1, p-Akt (S473) in Rat-1 cells, Surefire format. The format is cell-based. Particulars: non-asterisked data: version I1 (Surefire format), Rat-1 cells; read-out: Assay I PI3Kβ IC50.
For data set [10], the target named is T4, PI 3-kinase alpha. Description: Cellular assay H1, p-Akt (S473) in Rat-1 cells, Surefire format. The format is cell-based. The settings on record: non-asterisked data: version H1 (Surefire format), Rat-1 cells; read-out: Assay H PI3Kα IC50.
Target sequence in this assay (P42336 whole entry): as above
Target sequence in this assay (Q63787 whole entry partner): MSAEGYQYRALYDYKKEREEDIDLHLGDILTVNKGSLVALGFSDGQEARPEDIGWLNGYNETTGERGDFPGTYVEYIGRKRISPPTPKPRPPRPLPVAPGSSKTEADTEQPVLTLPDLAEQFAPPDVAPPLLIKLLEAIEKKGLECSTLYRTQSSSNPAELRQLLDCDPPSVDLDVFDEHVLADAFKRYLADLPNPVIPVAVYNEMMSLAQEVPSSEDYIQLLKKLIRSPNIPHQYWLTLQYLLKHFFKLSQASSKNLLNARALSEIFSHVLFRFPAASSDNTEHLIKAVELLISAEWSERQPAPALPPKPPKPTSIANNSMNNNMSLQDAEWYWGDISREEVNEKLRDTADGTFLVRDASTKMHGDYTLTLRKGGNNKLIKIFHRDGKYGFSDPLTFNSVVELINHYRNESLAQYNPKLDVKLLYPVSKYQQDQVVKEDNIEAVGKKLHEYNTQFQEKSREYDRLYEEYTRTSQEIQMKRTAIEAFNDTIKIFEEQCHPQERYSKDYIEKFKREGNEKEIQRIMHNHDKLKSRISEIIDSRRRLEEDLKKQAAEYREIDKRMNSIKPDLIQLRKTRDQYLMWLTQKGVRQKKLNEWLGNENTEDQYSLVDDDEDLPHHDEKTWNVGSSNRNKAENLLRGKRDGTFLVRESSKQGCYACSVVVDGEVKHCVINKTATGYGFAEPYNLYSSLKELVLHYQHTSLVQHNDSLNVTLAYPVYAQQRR
Data set [11] addresses T2, PI 3-kinase delta. The experiment in a line: Cellular assay J1, p-Akt (S473) in Rat-1 cells, Surefire format. The settings on record: non-asterisked data: version J1 (Surefire format), Rat-1 cells; read-out: Assay J PI3Kδ IC50. The format is cell-based.
Target sequence in this assay (O00329 whole entry): as the sequence (O00329 whole entry) above
Target sequence in this assay (Q63787 whole entry partner): as the sequence (Q63787 whole entry partner) above
Source text: Cellular Assays for PI 3-Kinase Alpha (H1), Beta (I1) and Delta (J1): Surefire Format
AlphaScreen (Amplified Luminescent Proximity Homogeneous Assay, ALPHA, Perkin Elmer) is a non-radioactive bead-based proximity assay technology to study biomolecular interactions in a homogenous microtiter plate format. The brand name SureFire denotes AlphaScreen assays that are adapted to quantify the phosphorylation of endogenous cellular proteins in cell lysates, by using matched antibody pairs, which consist of an anti-phospho-kinase and an anti-kinase antibody. The assay allows characterization of kinase signaling in cells as well as measurement of kinase inhibitor effects.
Using Rat-1 cells stably expressing myr-HA-tagged versions of the human PI3Kdelta, PI3Kalpha, or PI3Kbeta p110 catalytic subunit isoforms, the assay was developed as a two-plate protocol in a 384-well format.
For compound testing, the cells were seeded at a density of 4000 (Rat-1_PI3Kdelta), 7500 (Rat-1_PI3Kalpha), or 6200 (Rat-1_PI3Kbeta) cells in 20 μl complete growth medium into cell culture treated 384-well plates and were grown at 37° C./5% CO2/90% humidity for 24 h. Shortly before compound transfer, the complete medium was removed, 30 μl assay buffer (DMEM high glucose, 1×MEM NEAA, 10 mM HEPES, 2 mM L-glutamine, 0.1% (w/v) BSA) was added and 10 μl of the compound predilutions were transferred to the cells.

Procedure for PI 4-kinase beta: (§1) Kinase Glo Luminescent Kinase Assay (Kglo) for Pb 3-Kinase Alpha (A), Pb 3-Kinase Beta (B), Vps34 (C), Pb 4-Kinase Beta (D)
(§2) The Kinase Glo Luminescent Kinase Assay (Promega, Madison/Wis., USA) is a homogeneous HTS method of measuring kinase activity by quantifying the amount of ATP remaining in solution following a kinase reaction.
(§3) L-α-phosphatidylinositol (PI), provided as 10 mg/ml solution in methanol, was transferred into a glass tube and dried under a nitrogen beam. It was then resuspended in 3% OctylGlucoside (1-0-n-octyl-beta-D-glucopyranoside) by vortexing and stored at 4° C. 5 μL of a mix of PI/OctylGlucoside with the PI 3-kinase alpha and PI 3-kinase beta subtypes, or Vps34 or PI 4-kinase beta were added. Kinase reactions were started by the addition of 5 μl of an ATP-mix containing in a final volume 10 μL 10 mM TRIS-HCl pH 7.5, 3 mM MgCl2, 50 mM NaCl, 0.05% CHAPS, 1 mM DTT and 1 μM ATP at room temperature.
(§4) All fits were performed with the program XLfit4 (ID Business Solutions, Guildford, UK).
Procedure for Vps34: as §1, §2, §3, §4
Procedure for mTOR: Lanthascreen™ Kinase Binding Assay for mTOR (G)
Binding of an inhibitor to the kinase competes for binding with the tracer, resulting in a loss of FRET.
50 nL of compound dilutions were dispensed onto white 384-well small volume polystyrene plate.

On to `Cc1ccc(S(=O)(=O)NCCN)cc1-c1cnc(N)c(-n2cncn2)n1` [Example 33, N-(2-Amino-ethyl)-3-(5-amino-6-[1,2,4]triazol-1-yl-pyrazin-2-yl)-4-methyl-benzenesulfonamide trifluoroacetic acid salt], for which the IC50 is 380 nM at PI 3-kinase beta [1]; 742 nM in [2]; more than 10000 nM at Vps34; 910 nM on PI 4-kinase beta; 1500 nM at mTOR; 780 nM at PI 3-kinase delta [3]. The IC50 on PI 3-kinase gamma [4] came out at 47 nM; on PI 3-kinase alpha [5] it was 210 nM; at PI 3-kinase gamma [6], 1980 nM; on PI 3-kinase gamma [8], 622 nM. Besides, the “Assay M RLM CI(int)” value in data set [7] was 12 µL/min/mg.
Take `Cc1ncc(-c2nc(-c3cc(S(=O)(=O)NCC4(CO)COC4)ccc3C)cnc2N)s1` [Example 44, 3-(5-Amino-6-(2-methylthiazol-5-yl)pyrazin-2-yl)-N-((3-(hydroxymethyl)oxetan-3-yl)methyl)-4-methylbenzenesulfonamide]: the IC50 on PI 3-kinase beta [9] is more than 10000 nM; on PI 3-kinase beta [1], 240 nM; on PI 3-kinase alpha [10], 7040 nM; in data set [2], 413 nM; on PI 3-kinase delta [11] it was more than 10000 nM; on Vps34, 2300 nM. Also, the half-inhibitory concentration (IC50) at PI 4-kinase beta is 1600 nM; on PI 3-kinase delta [3] it was 150 nM; at PI 3-kinase gamma [4] it was 5 nM; at PI 3-kinase alpha [5], 60 nM; at PI 3-kinase gamma [6] it was 22 nM; at PI 3-kinase gamma [8], 59 nM. In data set [7], the “Assay M RLM CI(int)” value stood at 37 µL/min/mg.
As to `Cc1ccc(S(=O)(=O)NCC(C)(C)O)cc1-c1cnc(N)c(-c2cnn(C)c2C)n1` [Example 46, 3-(5-Amino-6-(1,5-dimethyl-1H-pyrazol-4-yl)pyrazin-2-yl)-N-(2-hydroxy-2-methylpropyl)-4-methylbenzenesulfonamide], the IC50 is 820 nM at PI 3-kinase beta [1]; 730 nM in data set [2]; more than 10000 nM at Vps34; more than 10000 nM at PI 4-kinase beta; more than 10000 nM on mTOR; 450 nM on PI 3-kinase delta [3]. The IC50 at PI 3-kinase gamma [4] is 26 nM; at PI 3-kinase alpha [5], 220 nM; at PI 3-kinase gamma [6], 145 nM; at PI 3-kinase gamma [8] it was 331 nM. Also, the “Assay M RLM CI(int)” value in [7] was 24 µL/min/mg.
Turning to `Cc1ccc(S(=O)(=O)NCCC(C)(C)O)cc1-c1cnc(N)c(-c2cnn(C)n2)n1` [Example 85, 3-(5-Amino-6-(2-methyl-2H-1,2,3-triazol-4-yl)pyrazin-2-yl)-N-(3-hydroxy-3-methylbutyl)-4-methylbenzenesulfonamide], the IC50 was 1200 nM at PI 3-kinase beta [1]; 497 nM in [2]; more than 10000 nM on Vps34; more than 10000 nM on PI 4-kinase beta; 7900 nM at mTOR; 120 nM on PI 3-kinase delta [3]. For the same molecule, the concentration for half-maximal inhibition (IC50) at PI 3-kinase gamma [4] amounted to 21 nM; on PI 3-kinase alpha [5] it was 90 nM; on PI 3-kinase gamma [6] it was 41 nM; at PI 3-kinase gamma [8] it was 65 nM. Also, the “Assay M RLM CI(int)” value in data set [7] came out at 73 µL/min/mg.
As for `Cc1ccc(S(=O)(=O)NOC(C)(C)C)cc1-c1cnc(N)c(-n2cncn2)n1` [Example 112.1, 3-(5-Amino-6-(1H-1,2,4-triazol-1-yl)pyrazin-2-yl)-N-(tert-butoxy)-4-methylbenzenesulfonamide], the IC50 was 1470 nM at PI 3-kinase beta [9]; 1700 nM on PI 3-kinase beta [1]; 800 nM on PI 3-kinase alpha [10]; 1330 nM in data set [2]; 380 nM on PI 3-kinase delta [11]; more than 10000 nM on Vps34. The IC50 at PI 4-kinase beta was determined as 1800 nM; at mTOR it was 6000 nM; on PI 3-kinase delta [3], 210 nM; at PI 3-kinase gamma [4], 33 nM; at PI 3-kinase alpha [5], 290 nM; on PI 3-kinase gamma [6], 91 nM. The IC50 at PI 3-kinase gamma [8] was 63 nM.
Consider `Cc1ccc(S(=O)(=O)NCC(C)(C)O)cc1-c1cnc(N)c(-n2cnc(CN(C)C)n2)n1` [Example 117, 3-(5-Amino-6-(3-((dimethylamino)methyl)-1H-1,2,4-triazol-1-yl)pyrazin-2-yl)-N-(2-hydroxy-2-methylpropyl)-4-methylbenzenesulfonamide hydrochloride salt], for which the half-maximal inhibitory concentration (IC50) on PI 3-kinase beta [9] was more than 3000 nM; on PI 3-kinase beta [1], more than 10000 nM; on PI 3-kinase alpha [10], more than 10000 nM; in [2] it was 727 nM; at PI 3-kinase delta [11], more than 10000 nM; on Vps34, more than 10000 nM. For the same molecule, the IC50 on PI 4-kinase beta is more than 10000 nM; on mTOR it was more than 10000 nM; at PI 3-kinase gamma [4] it was 36 nM; at PI 3-kinase alpha [5] it was 900 nM; at PI 3-kinase gamma [6], 577 nM; at PI 3-kinase gamma [8] it was 945 nM. In addition, the “Assay M RLM CI(int)” value in data set [7] was 85 µL/min/mg.
For `Cc1ccc(S(=O)(=O)N2CCC(F)C2)cc1-c1cnc(N)c(-n2cncn2)n1` (stereo not shown) [Example 127.2], the IC50 was 1000 nM at PI 3-kinase beta [1]; 3560 nM in [2]; more than 10000 nM on Vps34; 1700 nM on PI 4-kinase beta; 9400 nM on mTOR; 850 nM at PI 3-kinase delta [3]. The IC50 at PI 3-kinase gamma [4] came out at 73 nM; on PI 3-kinase alpha [5], 320 nM; at PI 3-kinase gamma [6] it was 850 nM; at PI 3-kinase gamma [8] it was 84 nM. For the same molecule, the “Assay M RLM CI(int)” value in [7] was determined as 375 µL/min/mg.
As to `Cc1ccc(S(=O)(=O)N2CC(C)(O)C2)cc1-c1cnc(N)c(-n2cncn2)n1` [Example 127.46], the IC50 at PI 3-kinase beta [1] is more than 9100 nM; in data set [2], 3770 nM; at Vps34 it was more than 9100 nM; at PI 4-kinase beta, 6900 nM; on mTOR, more than 9100 nM; at PI 3-kinase delta [3], 720 nM. For the same molecule, the IC50 at PI 3-kinase gamma [4] stood at 73 nM; on PI 3-kinase alpha [5], 1300 nM; at PI 3-kinase gamma [6], 708 nM; on PI 3-kinase gamma [8], 546 nM. The “Assay M RLM CI(int)” value in data set [7] came out at 34 µL/min/mg.
With `Cc1ccc(S(=O)(=O)NCC2(CO)COC2)cc1-c1cnc(N)c(-c2cn(C)nc2C)n1` [Example 128, 3-(5-Amino-6-(1,3-dimethyl-1H-pyrazol-4-yl)pyrazin-2-yl)-N-((3-(hydroxymethyl)oxetan-3-yl)methyl)-4-methylbenzenesulfonamide], the IC50 was 9910 nM on PI 3-kinase beta [9]; 500 nM on PI 3-kinase beta [1]; more than 10000 nM at PI 3-kinase alpha [10]; 2990 nM in data set [2]; more than 10000 nM at PI 3-kinase delta [11]; more than 10000 nM on Vps34. The IC50 at PI 4-kinase beta is 6800 nM; on PI 3-kinase delta [3], 100 nM; at PI 3-kinase gamma [4], 14 nM; on PI 3-kinase alpha [5] it was 150 nM; on PI 3-kinase gamma [6] it was 209 nM; on PI 3-kinase gamma [8], 201 nM. Besides, the “Assay M RLM CI(int)” value in data set [7] came to 22 µL/min/mg.
In the case of `Cc1ccc(S(=O)(=O)NC[C@H]2COCCN2)cc1-c1cnc(N)c(-c2cn(C)nc2C)n1` [Example 128.7, (S)-3-(5-Amino-6-(1,3-dimethyl-1H-pyrazol-4-yl)pyrazin-2-yl)-4-methyl-N-(morpholin-3-ylmethyl)benzenesulfonamide], the IC50 was more than 10000 nM at PI 3-kinase beta [9]; 1900 nM on PI 3-kinase beta [1]; more than 10000 nM at PI 3-kinase alpha [10]; 826 nM in data set [2]; more than 10000 nM on PI 3-kinase delta [11]; more than 10000 nM at Vps34. The IC50 at PI 4-kinase beta was more than 10000 nM; at PI 3-kinase delta [3], 690 nM; on PI 3-kinase gamma [4], 79 nM; at PI 3-kinase alpha [5], 220 nM; at PI 3-kinase gamma [6], 249 nM; on PI 3-kinase gamma [8] it was 117 nM. Besides, the “Assay M RLM CI(int)” value in data set [7] worked out at 20 µL/min/mg.
Turning to `Cc1ccc(S(=O)(=O)NCC2CNCCO2)cc1-c1cnc(N)c(-c2cn(C)nc2C)n1` (stereo not shown) [Example 128.8, 3-(5-amino-6-(1,3-dimethyl-1H-pyrazol-4-yl)pyrazin-2-yl)-4-methyl-N-(morpholin-2-ylmethyl)benzenesulfonamide], the IC50 on PI 3-kinase beta [9] is more than 10000 nM; on PI 3-kinase beta [1], 1800 nM; on PI 3-kinase alpha [10], more than 3000 nM; in data set [2], 1670 nM; at PI 3-kinase delta [11], more than 10000 nM; on Vps34 it was more than 10000 nM. Moreover, the IC50 on PI 4-kinase beta is more than 10000 nM; on PI 3-kinase delta [3], 100 nM; on PI 3-kinase gamma [4] it was 21 nM; at PI 3-kinase alpha [5], 590 nM; on PI 3-kinase gamma [6] it was 751 nM; at PI 3-kinase gamma [8], 421 nM. Besides, the “Assay M RLM CI(int)” value in data set [7] is less than 3.4 µL/min/mg.
